Source: US6399583B1, “Hybrid anthracyclines from genetically engineered streptomyces galilaeus strains, process for production and uses thereof” (Galilaeus Oy, priority 1998, dated 2002)
Read-outs that look alike come from different tables or passages of the source.

Legend:
[1] = tested on: MES-SA human uterine sarcoma cells; assay: Cytotoxicity assay, luminescence ATP detection, MES-SA; format: cell-based; conditions: three days incubation, ATP content, highest concentration 10^-5 M, read-out: ED50 (nM) MES-SA
Description: (§1) The cytotoxicities of the new anthracyclines were tested in vitro with two cell lines: human uterine sarcomas MES-SA (CRL-1976; American Type Culture Collection (ATCC), Rockville, Md., USA) and MES-SA/D×5 (CRL-1977; ATCC, Rockville, Md., USA). MES-SA/D×5 has been developed by growing MES-SA cells in increasing concentrations of doxorubicin (Harker and Sikic, 1985).
(§2) Monolayer cultures were grown in McCoy's 5A medium with L-glutamine (Gibco BRL) supplemented with 10% FBS (Foetal Bovine Serum, Gibco BRL). No antibiotics were added. As the resistance is stable for at least 20 passages, the MES-SA/D×5 cells were grown without anthracycline selection (Harker and Sikic, 1985). Cells were maintained at 37° C. with 5% CO2 and subcultured every 3-5 days.
(§3) The cytotoxicity tests were performed in 96-well microtiter plates (sterile white plates with clear bottom, Corning Costar Corporation, Cambridge, Mass., USA). The anthracyclines were pipetted into the plates in 10 μl of ethanol, pure ethanol was used for control plates. Daunorubicin and aclarubicin were used as positive controls. When the ethanol had evaporated, the cells were seeded into the plates in 100 μl of appropriate medium. The number of cells seeded per well was 2500 with MES-SA, 3000 with MES-SA/D×5, 3000 with LL/2, 2000 with B16-F0 and B16-F1, 2000 with KLN-205 and 8000 with MLTC-1. The ATP content of the cells was measured after incubating the cells for three days at 37° C. with 5% CO2.
(§4) The growth medium was removed by turning the plates over, and 200 μl of ATP extraction reagent, Somalyze, were added to the wells. The plates were then incubated for 30 minutes at room temperature. The ATP measurement was performed with Luminoskan luminometer (Labsystems Oy, Helsinki, Finland) at 22° C. 20 μl of ATP monitoring reagent containing luciferin and luciferase was dispensed, and an integral measurement of 10 s with 2 s lag time was performed for each well. All reagents used were supplied by Bio-Orbit Oy, Turku, Finland.
(§5) The direct luminometer output (in relative light units, RLUS) was used to calculate the cytotoxic effect. This light signal is directly proportional to the amount of […] in a wide range (determined with Bio-Orbit ATP standard, data not shown). On the other hand, the amount of ATP is directly proportional to the amount of living cells (Kangas et al., 1984). The results are expressed as percentages of the control value of untreated cells. An IC50 value (the drug concentration resulting to an ATP signal of 50% of the untreated control signal) was graphically estimated from the % of control vs. drug concentration plot.

[2] = tested on: MES-SA/D×5 uterine sarcoma cells (doxorubicin-resistant, MDR); assay: Cytotoxicity assay, luminescence ATP detection, MES-SA/D×5; format: cell-based, human; conditions: MES-SA/D×5 cells, three days incubation, ATP content, highest concentration 10^-5 M, read-out: ED50 (nM) MES-SA/D × 5
Description: as §1, §2, §3, §4, §5

[3] = tested on: Lewis lung carcinoma (LL/2); assay: Cytotoxicity assay, ATP detection, LL/2; format: cell-based, mouse; conditions: LL/2 cells in vitro, read-out: ED50 LL/2
Description: as §3, §4, §5
H075-4a was also tested with several mouse cell lines in vitro (all were purchased from ATCC, Rockville, Md., USA): Lewis lung carcinoma (LL/2) (CRL-1642), B16-F0 melanoma (CRL-6322), B16-F1 melanoma (CRL-6323), KLN-205 lung squamous cell carcinoma (CRL-1453) and MLTC-1 leydig cell tumor (CRL-2065) using daunomycin, aclarubicin and H075-1a (MA 144U1) as references.
All cells grew as monolayers and were cultured at 37° C. with 5% CO2 according to ATCC standard instructions for each cell line: LL/2 in Dulbecco's modified Eagle's medium with 4.5 g/l glucose and 10% FCS, B16-F0 and B16-F1 in MEM (Eagle) in Earle's BSS with non-essential amino acids and 10% FCS, KLN-205 in MEM (Eagle) in Earle's BSS with non-essential amino acids and 10% FCS, MLTC-1 in RPMI 1640 with 25 mM HEPES and 10% FBS. All media were purchased from Gibco BRL, the serum was Gibco BRL Foetal Bovine Serum. […]

SK-N-MC = assay: Cytotoxicity assay, ATP detection, SK-N-MC; format: cell-based; conditions: SK-N-MC cells in vitro; read-out: ED50 SK-N-MC

Structure (SMILES) | EC50 [1] | EC50 [2] | EC50 [3] | EC50 (SK-N-MC) | EC50 ([1]; Homo sapiens, 72 h) | EC50 ([2]; Homo sapiens, 72 h) | EC50 ([3]; Mus musculus)
CCC1(O)CC(OC2CC(N(C)C)C(OC3CC(O)C(OC4CC(O)C(O)C(C)O4)C(C)O3)C(C)O2)c2c(O)c3c(c(O)c2C1C(=O)OC)C(=O)c1cccc(O)c1C3=O (centres unmarked) [Compound H075-4a] | 1 nM | 50 nM | 8 nM | 9 nM | – | – | –
COc1cccc2c1C(=O)c1c(O)c3c(c(O)c1C2=O)C[C@@](O)(C(C)=O)C[C@@H]3O[C@H]1C[C@H](N)[C@H](O)[C@H](C)O1 [Daunorubicin] | – | – | – | 3 nM | 8 nM | 220 nM | 15 nM
